# Assays:
# Experiment in all cases: relative viability (nuclei count vs DMSO), 5 days (fraction); higher = more cells survive
# Apatinib + Luminespib = compound: N#CC1(c2ccc(NC(=O)c3cccnc3NCc3ccncc3)cc2)CCCC1 [Apatinib] + CCNC(=O)c1noc(-c2cc(C(C)C)c(O)cc2O)c1-c1ccc(CN2CCOCC2)cc1 [Luminespib] (partner 0.01 µM)
# Procedure, shortened: (§1)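 A single step with final 0.05% Triton X-100, 1% formaldehyde and 1 ug/ml Hoechst fixed the cells and stained nuclei 5 days after treatment. Lung cancer cell lines in 1536-well plates had been treated by pin tool the day after seeding with one drug alone or a fixed anchor-drug dose plus five library-drug doses (not always all listed) in √10 steps, and nuclei were counted on 4× images. Relative viability is the ratio of nuclei in treated wells to nuclei in vehicle wells, taken as the median of duplicate plates.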
# Apatinib + Alpelisib = compound: N#CC1(c2ccc(NC(=O)c3cccnc3NCc3ccncc3)cc2)CCCC1 [Apatinib] + Cc1nc(NC(=O)N2CCC[C@H]2C(N)=O)sc1-c1ccnc(C(C)(C)C(F)(F)F)c1 [Alpelisib] (partner 2 µM)
# Procedure, shortened: as §1
# Metformin + Navitoclax = compound: CN(C)C(=N)NC(=N)N [Metformin] + CC1(C)CCC(c2ccc(Cl)cc2)=C(CN2CCN(c3ccc(C(=O)NS(=O)(=O)c4ccc(N[C@H](CCN5CCOCC5)CSc5ccccc5)c(S(=O)(=O)C(F)(F)F)c4)cc3)CC2)C1 [Navitoclax] (partner 0.5 µM)
# Procedure, shortened: as §1
# Metformin + Phenformin = compound: CN(C)C(=N)NC(=N)N [Metformin] + N=C(N)NC(=N)NCCc1ccccc1 [Phenformin] (partner 250 µM)
# Procedure, shortened: as §1
Cell Line,relative viability (Apatinib + Luminespib; first compound 0.08 µM),relative viability (Apatinib + Luminespib; first compound 0.253 µM),relative viability (Apatinib + Luminespib; first compound 0.8 µM),relative viability (Apatinib + Luminespib; first compound 2.53 µM),relative viability (Apatinib + Luminespib; first compound 8 µM),relative viability (Apatinib + Alpelisib; first compound 0.08 µM),relative viability (Apatinib + Alpelisib; first compound 0.253 µM),relative viability (Apatinib + Alpelisib; first compound 0.8 µM),relative viability (Apatinib + Alpelisib; first compound 2.53 µM),relative viability (Apatinib + Alpelisib; first compound 8 µM),relative viability (Metformin + Navitoclax; first compound 10 µM),relative viability (Metformin + Navitoclax; first compound 31.62 µM),relative viability (Metformin + Navitoclax; first compound 100 µM),relative viability (Metformin + Navitoclax; first compound 316.23 µM),relative viability (Metformin + Navitoclax; first compound 1000 µM),relative viability (Metformin + Phenformin; first compound 10 µM),relative viability (Metformin + Phenformin; first compound 31.62 µM),relative viability (Metformin + Phenformin; first compound 100 µM),relative viability (Metformin + Phenformin; first compound 316.23 µM),relative viability (Metformin + Phenformin; first compound 1000 µM)
NCI-H2405,0.675,0.695,0.653,0.621,0.491,0.855,1.1,0.91,0.841,0.81,0.869,1.26,0.988,1.07,1.09,0.379,0.362,0.362,0.393,0.326
NCI-H1734,0.19,0.187,0.275,0.165,0.193,0.739,0.774,0.701,0.591,0.595,0.882,0.863,0.908,0.822,0.905,0.431,0.447,0.405,0.367,0.379
NCI-H1299,–,–,–,–,–,1.06,1.05,1.03,1.04,0.929,1.12,1.11,1.15,1.15,1.12,–,–,–,–,–
NCI-H1915,0.891,0.852,0.737,0.692,0.544,1.08,1.09,1.04,0.916,0.81,–,0.794,0.702,0.749,0.806,–,0.357,0.384,0.352,0.365
NCI-H2228,0.126,0.122,0.129,0.13,0.126,0.785,0.738,0.648,0.542,0.527,1.02,1.04,–,0.815,1.05,0.27,0.213,0.372,0.275,0.322
NCI-H650,0.774,0.831,0.872,0.645,0.524,1.23,1.25,1.04,1.03,0.987,–,–,–,–,–,0.446,0.509,0.357,0.436,0.494
NCI-H358,0.246,0.368,0.684,0.382,0.236,0.87,0.914,0.831,0.882,0.781,–,–,–,–,–,0.351,0.237,0.217,0.309,0.328
ChaGo-K-1,0.618,0.679,0.661,0.519,0.564,–,–,–,–,–,1,1.42,0.95,0.93,1.24,0.539,0.498,0.488,0.489,0.557
ABC-1,–,0.907,0.646,0.554,0.553,–,1.2,1.1,1.01,1.1,–,–,–,–,–,0.292,0.244,0.251,0.202,0.19
A549,–,–,–,–,–,0.784,0.844,0.919,0.78,0.65,0.895,1.03,1.04,0.843,0.297,0.0727,0.111,0.127,0.124,0.154
NCI-H661,0.973,0.873,0.898,0.95,0.865,0.576,0.43,0.564,0.623,0.597,–,–,–,–,–,0.284,0.262,0.264,0.267,0.267
HCC-366,–,–,–,–,–,0.417,0.46,0.4,0.308,0.265,1.12,1.12,1.06,0.991,1.06,0.403,0.679,0.616,0.644,0.734
SW 900,0.171,0.178,0.175,0.185,0.177,–,–,–,–,–,–,–,–,–,–,0.805,0.736,0.665,0.539,0.862
LCLC-103H,0.969,0.949,0.864,0.957,0.735,0.971,0.87,1.02,0.918,0.911,–,–,–,–,–,0.337,0.374,0.407,0.324,0.398
NCI-H1623,0.402,0.429,0.465,0.461,0.476,–,–,–,–,–,–,–,–,–,–,0.556,0.553,0.569,0.577,0.371
NCI-H2342,0.677,0.552,0.81,0.702,0.726,–,–,–,–,–,–,–,–,–,–,0.59,0.47,0.494,0.51,0.572
NCI-H1703,–,–,–,–,–,0.289,0.252,0.25,0.175,0.17,1.18,1.15,1.16,0.854,0.735,–,–,–,–,–
Calu-6,–,–,–,–,–,1.02,1.12,0.956,0.895,0.73,0.726,0.784,0.855,0.7,0.619,–,–,–,–,–
EBC-1,–,–,–,–,–,0.844,0.935,0.88,0.734,0.404,0.364,0.405,0.356,0.362,0.442,–,–,–,–,–
IA-LM,–,–,–,–,–,0.793,0.673,0.665,0.558,0.337,–,0.93,0.941,0.686,0.645,–,–,–,–,–
NCI-H1563,0.534,0.536,0.533,0.548,0.543,0.967,0.982,0.929,0.93,0.804,–,–,–,–,–,0.704,0.702,0.647,0.663,0.56
NCI-H1650,–,0.185,0.217,0.179,0.168,–,–,–,–,–,1.16,1.34,1.46,1.37,1.1,0.7,0.548,0.593,0.458,0.476
HCC-78,–,–,–,–,–,0.414,0.291,0.364,0.25,0.382,0.994,1.17,1.01,1,1.06,0.685,0.716,0.627,0.651,0.782
